≈ marks a conversion by molar mass, not a printed value.

This is an account of results in publication PMC10816276 (International Journal of Molecular Sciences, 2024).

The target in assay [1] is T1, Mushroom tyrosinase (mTyr) (Agaricus bisporus, UniProt C7FF04).
T1 construct: purchased Sigma-Aldrich
The assay can be described thus: mTyr inhibition kinetics (Lineweaver-Burk). Format: biochemical. The protocol: The mTyr inhibition kinetics of 6′-O-caffeoylarbutin were studied using a method similar to the previously reported procedure for determining the inhibitory activity of 6′-O-caffeoylarbutin on mTyr.
I. Enzyme inhibition mechanism study. For the investigation of the enzyme inhibition mechanism, L-DOPA was used at a final concentration of 0.5 mmol·L^−1, and the mTyr was set at final concentrations of 8.1, 32.5, and 65.0 U·mL^−1. The rate of change of optical density (OD) at 490 nm was measured for various concentrations of 6′-O-caffeoylarbutin (ranging from 10 to 100 μM). A graph was plotted to depict the relationship between the rate of change of OD values and the mTyr concentration under the influence of different concentrations of 6′-O-caffeoylarbutin.
II. Enzyme inhibition type study. To determine the enzyme inhibition type, L-DOPA was used with final concentrations of 0.2, 0.5, 0.6, and 0.8 mmol·L^−1, while mTyr was used at a final concentration of 31.25 U·mL^−1. The rate of change of OD at 490 nm was measured for various concentrations of 6′-O-caffeoylarbutin (ranging from 0 to 100 μM). A reciprocal plot was generated using the rate of change of OD values and L-DOPA concentration. The inhibition constants were obtained based on the inhibition type of 6′-O-caffeoylarbutin on mTyr using quadratic plotting of the 6′-O-caffeoylarbutin concentration and the slope and vertical intercept of the line in the Lineweaver_Burk double reciprocal plot and Dixon plot.

In assay [2] the test system is Human melanoma A375 tumor cells. The assay can be described thus: CCK-8 cell proliferation and cytotoxicity assay, A375. Format: cell-based. The method, then:
I. Cell lines and cell culture. Human melanoma A375 tumor cells and human immortalized keratinocyte (HaCaT) non-tumor cells were obtained from Nanjing Pusheng Biomedical Technology Co., Ltd. (Nanjing, China). The cells (A375/HaCaT) were cultured in Dulbecco’s modified Eagle’s medium (DMEM, Gibco, New York, NY, USA) supplemented with 10% (v/v) fetal bovine serum (FBS, Gibco, New York, NY, USA), and incubated at 37 °C with 5% CO2 in a humidified incubator.
II. Cell viability assay. Cell proliferation and cytotoxicity assays were conducted using the Cell counting kit-8 (CCK-8) on A375 and HaCaT cells. Briefly, the cells were initially seeded in 96-well plates at a density of 4 × 10^4 cells per well and incubated for 24 h at 37 °C with 5% CO2 in a humidified incubator. Each treatment was performed in six duplicate wells. The tested compounds were added at various concentrations, and the cells were then incubated for 72 h. Following the incubation period, CCK-8 solution (Dojindo Laboratories, Kumamoto, Japan) was added to each well, and the plates were further incubated for 2 h. The absorbance of each well at 450 nm was measured using an absorbance microplate reader (BioTek ELx800, Winooski, VT, USA). The assay included negative controls in which cells were treated with ultrapure water and positive controls in which cells were treated with 10 µg·mL^−1 taxol. The percentage of cell growth inhibition was calculated using the following Equation (3). (3) Cell growth inhibition rate [%]=B1−B2/B1−B3×100 where B1 represents the absorbance of a mixture containing cells, medium, and CCK-8 solution, B2 represents the absorbance of a mixture containing cells, medium, CCK-8 solution, and the test compound; and B3 represents a mixture containing medium and CCK-8 solution.

T1 sequence (C7FF04 1-392): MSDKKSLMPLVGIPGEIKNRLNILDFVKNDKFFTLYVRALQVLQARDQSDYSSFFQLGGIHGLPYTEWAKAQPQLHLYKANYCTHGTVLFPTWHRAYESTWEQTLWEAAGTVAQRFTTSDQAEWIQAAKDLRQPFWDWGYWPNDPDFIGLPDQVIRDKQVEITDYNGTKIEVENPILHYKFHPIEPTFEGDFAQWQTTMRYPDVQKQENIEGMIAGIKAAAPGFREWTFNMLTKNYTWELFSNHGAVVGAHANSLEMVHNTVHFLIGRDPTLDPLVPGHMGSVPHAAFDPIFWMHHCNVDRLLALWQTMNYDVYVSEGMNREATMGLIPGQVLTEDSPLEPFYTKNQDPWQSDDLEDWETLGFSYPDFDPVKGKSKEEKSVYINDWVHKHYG

In general, Ki refers to a measure of affinity in units of concentration, obtained from inhibition or displacement. One may read the inhibition as the relative decrease from the control value, in per cent. By IC50 is commonly meant the point on the concentration scale where inhibition reaches its midpoint. A low value points to inhibition by little substance. Turning to `O=C(C=Cc1ccc(O)c(O)c1)OCC1OC(Oc2ccc(O)cc2)C(O)C(O)C1O` (stereo not shown) [6′-O-caffeoylarbutin], the “inhibition type on mTyr” value in assay [1] (Lineweaver-Burk, substrate L-DOPA) was “competitive inhibition”. Moreover, the Ki in assay [1] (binding to free enzyme, substrate L-DOPA, read-out: inhibition constant (Ki) on mTyr) came out at 1.34 ± 0.92 µM. Besides, the “reversibility of mTyr inhibition” value in assay [1] (rate vs enzyme concentration, 10-100 μM inhibitor, L-DOPA 0.5 mmol·L^−1) is listed as “reversible”. The inhibition rate entry in assay [2] (3.125–100 μg∙mL^−1, 72 h) is recorded as “below 5%”. For the same compound, in assay [2] (Homo sapiens, A-375, 200 μg∙mL^−1, 72 h, read-out: inhibition rate), the inhibition at 200 µg/mL was 20%. For the same compound, in assay [2] (Homo sapiens, A-375, 400 μg∙mL^−1, 72 h, read-out: inhibition rate), the inhibition at 400 µg/mL amounted to 67.8%. In assay [2] (Homo sapiens, A-375, 72 h, CCK-8), this compound registered a half-inhibitory concentration (IC50) of 313 µg/mL (≈ 721 µM).
